Legend:
[1] = system: Receptor-type tyrosine-protein kinase FLT3 (Homo sapiens), P36888 [D835Y]; conditions: Compound concentration 1000.0 nM
[2] = biological target: SRSF protein kinase 3 (Homo sapiens) (UniProt Q9UPE1); conditions: Compound concentration 1000.0 nM
[3] = biological target: Homeodomain-interacting protein kinase 4 (Homo sapiens) (UniProt Q8NE63); conditions: Compound concentration 1000.0 nM
[4] = biological target: Ribosomal protein S6 kinase alpha-3 (Homo sapiens) (UniProt P51812); conditions: Compound concentration 1000.0 nM
[5] = biological target: Activin receptor type-2A (Homo sapiens) (UniProt P27037); conditions: Compound concentration 1000.0 nM
[6] = biological target: Tyrosine-protein kinase Tec (Homo sapiens) (UniProt P42680); conditions: Compound concentration 1000.0 nM
[7] = biological target: LIM domain kinase 1 (Homo sapiens) (UniProt P53667); conditions: Compound concentration 1000.0 nM
[8] = biological target: Tyrosine-protein kinase Fgr (Homo sapiens) (UniProt P09769); conditions: Compound concentration 1000.0 nM
[9] = biological target: Phosphorylase b kinase gamma catalytic chain, skeletal muscle/heart isoform (Homo sapiens) (UniProt Q16816); conditions: Compound concentration 1000.0 nM
[10] = biological target: Serine/threonine-protein kinase mTOR (Homo sapiens) (UniProt P42345); conditions: Compound concentration 1000.0 nM
[11] = biological target: Serine/threonine-protein kinase OSR1 (Homo sapiens) (UniProt O95747); conditions: Compound concentration 1000.0 nM
[12] = biological target: Tyrosine-protein kinase Fyn (Homo sapiens) (UniProt P06241); conditions: Compound concentration 1000.0 nM
[13] = biological target: Fibroblast growth factor receptor 2 (Homo sapiens) (UniProt P21802); conditions: Compound concentration 1000.0 nM
[14] = biological target: Serine/threonine-protein kinase ULK2 (Homo sapiens) (UniProt Q8IYT8); conditions: Compound concentration 1000.0 nM
[15] = biological target: 5'-AMP-activated protein kinase catalytic subunit alpha-1 (Homo sapiens) (UniProt Q13131); conditions: Compound concentration 1000.0 nM
[16] = species: Rattus norvegicus; conditions: Compound concentration 10.0 uM
[17] = biological target: Serine/threonine-protein kinase MRCK beta (Homo sapiens) (UniProt Q9Y5S2); conditions: Compound concentration 1000.0 nM
[18] = biological target: Mitogen-activated protein kinase kinase kinase 1 (Homo sapiens) (UniProt Q13233); conditions: Compound concentration 1000.0 nM
[19] = biological target: Alpha-1A adrenergic receptor (Homo sapiens) (UniProt P35348); conditions: Compound concentration 10.0 uM
[20] = biological target: Calcium/calmodulin-dependent protein kinase type 1 (Homo sapiens) (UniProt Q14012); conditions: Compound concentration 1000.0 nM
[21] = biological target: Phosphatidylinositol 3-kinase catalytic subunit type 3 (Homo sapiens) (UniProt Q8NEB9); conditions: Compound concentration 1000.0 nM
[22] = biological target: Protein kinase C theta type (Homo sapiens) (UniProt Q04759); conditions: Compound concentration 1000.0 nM
[23] = biological target: Phosphatidylinositol 4-phosphate 5-kinase type-1 gamma (Homo sapiens) (UniProt O60331); conditions: Compound concentration 1000.0 nM
[24] = biological target: Mitogen-activated protein kinase 3 (Homo sapiens) (UniProt P27361); conditions: Compound concentration 1000.0 nM
[25] = biological target: Activin receptor type-1 (Homo sapiens) (UniProt Q04771); conditions: Compound concentration 1000.0 nM
[26] = system: Epidermal growth factor receptor (Homo sapiens), P00533 [T790M]; conditions: Compound concentration 1000.0 nM
[27] = biological target: Cyclin-dependent kinase 11B (Homo sapiens) (UniProt P21127); conditions: Compound concentration 1000.0 nM
[28] = biological target: Myosin light chain kinase 2, skeletal/cardiac muscle (Homo sapiens) (UniProt Q9H1R3); conditions: Compound concentration 1000.0 nM
[29] = biological target: Macrophage-stimulating protein receptor (Homo sapiens) (UniProt Q04912); conditions: Compound concentration 1000.0 nM
[30] = biological target: Epidermal growth factor receptor (Homo sapiens) (UniProt P00533); conditions: Compound concentration 1000.0 nM
[31] = biological target: Focal adhesion kinase 1 (Homo sapiens) (UniProt Q05397); conditions: Compound concentration 1000.0 nM
[32] = biological target: Mitogen-activated protein kinase 7 (Homo sapiens) (UniProt Q13164); conditions: Compound concentration 1000.0 nM
[33] = biological target: Phosphatidylinositol 4-phosphate 5-kinase type-1 alpha (Homo sapiens) (UniProt Q99755); conditions: Compound concentration 1000.0 nM
[34] = biological target: Serine/threonine-protein kinase Sgk3 (Homo sapiens) (UniProt Q96BR1); conditions: Compound concentration 1000.0 nM
[35] = biological target: Cytoplasmic tyrosine-protein kinase BMX (Homo sapiens) (UniProt P51813); conditions: Compound concentration 1000.0 nM
[36] = biological target: Death-associated protein kinase 2 (Homo sapiens) (UniProt Q9UIK4); conditions: Compound concentration 1000.0 nM
[37] = biological target: Ephrin type-A receptor 5 (Homo sapiens) (UniProt P54756); conditions: Compound concentration 1000.0 nM
[38] = biological target: Mitogen-activated protein kinase 14 (Homo sapiens) (UniProt Q16539); conditions: Compound concentration 1000.0 nM
[39] = biological target: LIM domain kinase 2 (Homo sapiens) (UniProt P53671); conditions: Compound concentration 1000.0 nM
[40] = biological target: Cyclin-dependent kinase-like 2 (Homo sapiens) (UniProt Q92772); conditions: Compound concentration 1000.0 nM
[41] = biological target: Myosin light chain kinase (Homo sapiens) (UniProt Q32MK0); conditions: Compound concentration 1000.0 nM
[42] = biological target: 5-hydroxytryptamine receptor 1D (Homo sapiens) (UniProt P28221); conditions: Compound concentration 10.0 uM
[43] = biological target: Mitogen-activated protein kinase kinase kinase 13 (Homo sapiens) (UniProt O43283); conditions: Compound concentration 1000.0 nM
[44] = biological target: RAC-alpha serine/threonine-protein kinase (Homo sapiens) (UniProt P31749); conditions: Compound concentration 1000.0 nM
[45] = biological target: Receptor tyrosine-protein kinase erbB-4 (Homo sapiens) (UniProt Q15303); conditions: Compound concentration 1000.0 nM
[46] = biological target: Serine/threonine-protein kinase Nek4 (Homo sapiens) (UniProt P51957); conditions: Compound concentration 1000.0 nM

Sequence of Phosphatidylinositol 4-phosphate 5-kinase type-1 gamma (Homo sapiens) (O60331 whole entry): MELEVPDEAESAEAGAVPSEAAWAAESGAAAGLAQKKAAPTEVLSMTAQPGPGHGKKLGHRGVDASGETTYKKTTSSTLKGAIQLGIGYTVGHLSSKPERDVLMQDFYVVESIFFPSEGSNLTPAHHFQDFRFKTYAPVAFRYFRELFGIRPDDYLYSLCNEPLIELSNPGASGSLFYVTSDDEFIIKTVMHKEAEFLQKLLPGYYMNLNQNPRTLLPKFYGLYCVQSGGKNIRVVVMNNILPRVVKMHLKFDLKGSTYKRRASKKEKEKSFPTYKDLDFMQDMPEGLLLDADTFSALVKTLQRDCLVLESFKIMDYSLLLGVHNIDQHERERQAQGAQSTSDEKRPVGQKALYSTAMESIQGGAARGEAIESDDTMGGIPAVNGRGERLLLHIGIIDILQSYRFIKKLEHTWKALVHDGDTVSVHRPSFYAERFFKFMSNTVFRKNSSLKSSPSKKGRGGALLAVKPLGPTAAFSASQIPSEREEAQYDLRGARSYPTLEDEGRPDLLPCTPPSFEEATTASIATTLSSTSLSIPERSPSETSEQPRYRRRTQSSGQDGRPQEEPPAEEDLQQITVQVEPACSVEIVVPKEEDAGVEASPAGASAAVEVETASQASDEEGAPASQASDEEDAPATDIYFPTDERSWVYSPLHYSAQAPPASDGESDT
Sequence of Cyclin-dependent kinase-like 2 (Homo sapiens) (Q92772 whole entry): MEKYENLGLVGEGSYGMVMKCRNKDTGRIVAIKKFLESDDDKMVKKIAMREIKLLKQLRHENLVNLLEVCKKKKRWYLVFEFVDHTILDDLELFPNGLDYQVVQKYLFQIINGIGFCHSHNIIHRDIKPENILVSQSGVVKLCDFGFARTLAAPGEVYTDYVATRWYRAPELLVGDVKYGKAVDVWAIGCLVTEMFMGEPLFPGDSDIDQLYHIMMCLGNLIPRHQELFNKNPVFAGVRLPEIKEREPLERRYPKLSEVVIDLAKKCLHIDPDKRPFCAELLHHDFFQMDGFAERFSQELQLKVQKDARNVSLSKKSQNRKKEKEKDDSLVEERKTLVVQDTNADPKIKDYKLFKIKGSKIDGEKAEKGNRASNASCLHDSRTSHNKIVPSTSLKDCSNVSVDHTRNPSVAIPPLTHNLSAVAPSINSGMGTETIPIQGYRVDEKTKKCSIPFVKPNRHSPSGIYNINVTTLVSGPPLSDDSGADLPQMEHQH
Sequence of Myosin light chain kinase 2, skeletal/cardiac muscle (Homo sapiens) (Q9H1R3 whole entry): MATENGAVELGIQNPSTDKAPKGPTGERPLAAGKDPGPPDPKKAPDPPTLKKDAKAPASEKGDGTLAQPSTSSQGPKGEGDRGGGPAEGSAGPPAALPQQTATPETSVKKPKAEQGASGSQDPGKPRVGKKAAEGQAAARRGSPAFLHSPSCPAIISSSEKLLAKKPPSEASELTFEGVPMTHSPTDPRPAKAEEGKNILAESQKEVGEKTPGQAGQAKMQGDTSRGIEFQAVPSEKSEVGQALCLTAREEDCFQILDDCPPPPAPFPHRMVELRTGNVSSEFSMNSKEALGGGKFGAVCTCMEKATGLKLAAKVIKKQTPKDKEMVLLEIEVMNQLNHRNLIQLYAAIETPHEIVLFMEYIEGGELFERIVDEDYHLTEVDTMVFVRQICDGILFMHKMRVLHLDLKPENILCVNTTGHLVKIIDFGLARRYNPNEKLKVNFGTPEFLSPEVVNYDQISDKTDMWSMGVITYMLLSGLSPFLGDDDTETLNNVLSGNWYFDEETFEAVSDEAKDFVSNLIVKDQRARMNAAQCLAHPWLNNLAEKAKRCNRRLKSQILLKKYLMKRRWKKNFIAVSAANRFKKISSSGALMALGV
Sequence of Mitogen-activated protein kinase 7 (Homo sapiens) (Q13164 2-816 limits assumed): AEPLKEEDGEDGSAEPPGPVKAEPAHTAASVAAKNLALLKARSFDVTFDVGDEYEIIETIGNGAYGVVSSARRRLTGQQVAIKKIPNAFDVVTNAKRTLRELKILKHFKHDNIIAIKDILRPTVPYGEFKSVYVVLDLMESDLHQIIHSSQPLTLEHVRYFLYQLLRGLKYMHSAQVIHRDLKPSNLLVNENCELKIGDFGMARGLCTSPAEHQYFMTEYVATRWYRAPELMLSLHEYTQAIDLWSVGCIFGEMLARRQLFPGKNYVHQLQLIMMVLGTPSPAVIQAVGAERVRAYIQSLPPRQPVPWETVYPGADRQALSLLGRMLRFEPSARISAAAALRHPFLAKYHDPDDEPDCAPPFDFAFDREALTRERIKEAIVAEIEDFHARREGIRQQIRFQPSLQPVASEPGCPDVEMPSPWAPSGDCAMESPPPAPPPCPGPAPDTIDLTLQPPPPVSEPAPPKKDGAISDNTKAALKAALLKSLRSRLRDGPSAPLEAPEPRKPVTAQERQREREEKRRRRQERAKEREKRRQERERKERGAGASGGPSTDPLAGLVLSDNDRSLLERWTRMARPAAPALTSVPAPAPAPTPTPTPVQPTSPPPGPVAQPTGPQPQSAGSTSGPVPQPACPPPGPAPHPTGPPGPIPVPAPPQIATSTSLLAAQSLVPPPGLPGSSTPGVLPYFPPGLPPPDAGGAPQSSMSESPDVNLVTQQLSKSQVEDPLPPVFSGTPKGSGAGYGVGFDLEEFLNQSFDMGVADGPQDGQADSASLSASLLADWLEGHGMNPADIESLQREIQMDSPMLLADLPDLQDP
Sequence of LIM domain kinase 1 (Homo sapiens) (P53667 whole entry, looked up, the tested form may be a part): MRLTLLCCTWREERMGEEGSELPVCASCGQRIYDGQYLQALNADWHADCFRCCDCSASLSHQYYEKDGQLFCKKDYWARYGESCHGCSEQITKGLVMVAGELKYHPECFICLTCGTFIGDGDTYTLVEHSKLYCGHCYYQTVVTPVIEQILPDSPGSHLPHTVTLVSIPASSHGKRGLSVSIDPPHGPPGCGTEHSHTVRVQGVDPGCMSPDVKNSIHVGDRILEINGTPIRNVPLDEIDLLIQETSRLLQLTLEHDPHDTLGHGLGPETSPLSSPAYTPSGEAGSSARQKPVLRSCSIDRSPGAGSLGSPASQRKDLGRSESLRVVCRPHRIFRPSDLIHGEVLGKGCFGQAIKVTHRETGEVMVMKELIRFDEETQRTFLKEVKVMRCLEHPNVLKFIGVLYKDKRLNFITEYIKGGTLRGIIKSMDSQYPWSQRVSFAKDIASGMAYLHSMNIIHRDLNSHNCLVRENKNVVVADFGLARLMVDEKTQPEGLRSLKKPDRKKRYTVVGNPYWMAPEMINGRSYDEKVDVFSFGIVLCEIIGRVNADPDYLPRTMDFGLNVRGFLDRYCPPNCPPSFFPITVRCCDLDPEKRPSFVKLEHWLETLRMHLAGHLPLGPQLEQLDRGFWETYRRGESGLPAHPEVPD
Sequence of 5-hydroxytryptamine receptor 1D (Homo sapiens) (P28221 whole entry): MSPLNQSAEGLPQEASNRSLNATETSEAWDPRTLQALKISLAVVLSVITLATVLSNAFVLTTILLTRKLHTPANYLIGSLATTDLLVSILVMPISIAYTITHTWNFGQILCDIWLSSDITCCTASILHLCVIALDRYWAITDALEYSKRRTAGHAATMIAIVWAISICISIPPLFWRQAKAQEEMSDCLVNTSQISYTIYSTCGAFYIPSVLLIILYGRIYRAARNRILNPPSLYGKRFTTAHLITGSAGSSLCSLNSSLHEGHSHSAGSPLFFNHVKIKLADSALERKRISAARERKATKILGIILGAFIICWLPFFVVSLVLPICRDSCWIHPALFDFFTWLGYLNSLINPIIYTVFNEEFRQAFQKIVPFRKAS
Sequence of Ribosomal protein S6 kinase alpha-3 (Homo sapiens) (P51812 whole entry): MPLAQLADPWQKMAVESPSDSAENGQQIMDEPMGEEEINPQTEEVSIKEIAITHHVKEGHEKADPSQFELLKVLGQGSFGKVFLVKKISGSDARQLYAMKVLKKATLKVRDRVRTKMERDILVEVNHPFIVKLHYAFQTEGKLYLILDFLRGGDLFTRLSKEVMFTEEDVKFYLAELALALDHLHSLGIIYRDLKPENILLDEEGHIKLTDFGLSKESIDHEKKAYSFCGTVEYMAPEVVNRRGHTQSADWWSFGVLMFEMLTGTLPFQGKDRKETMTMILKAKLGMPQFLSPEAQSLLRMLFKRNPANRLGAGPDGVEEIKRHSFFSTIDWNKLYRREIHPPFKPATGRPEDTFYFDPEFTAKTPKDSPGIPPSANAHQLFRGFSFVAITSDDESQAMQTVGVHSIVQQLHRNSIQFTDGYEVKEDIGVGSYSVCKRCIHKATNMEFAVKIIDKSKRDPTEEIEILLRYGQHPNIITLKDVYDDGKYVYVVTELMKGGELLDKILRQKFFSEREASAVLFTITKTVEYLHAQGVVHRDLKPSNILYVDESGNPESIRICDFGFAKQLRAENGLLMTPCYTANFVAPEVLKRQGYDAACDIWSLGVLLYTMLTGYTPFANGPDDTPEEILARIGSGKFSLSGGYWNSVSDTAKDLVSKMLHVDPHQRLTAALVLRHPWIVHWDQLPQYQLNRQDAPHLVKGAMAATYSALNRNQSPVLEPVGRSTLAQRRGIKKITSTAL
Sequence of Death-associated protein kinase 2 (Homo sapiens) (Q9UIK4 whole entry, looked up): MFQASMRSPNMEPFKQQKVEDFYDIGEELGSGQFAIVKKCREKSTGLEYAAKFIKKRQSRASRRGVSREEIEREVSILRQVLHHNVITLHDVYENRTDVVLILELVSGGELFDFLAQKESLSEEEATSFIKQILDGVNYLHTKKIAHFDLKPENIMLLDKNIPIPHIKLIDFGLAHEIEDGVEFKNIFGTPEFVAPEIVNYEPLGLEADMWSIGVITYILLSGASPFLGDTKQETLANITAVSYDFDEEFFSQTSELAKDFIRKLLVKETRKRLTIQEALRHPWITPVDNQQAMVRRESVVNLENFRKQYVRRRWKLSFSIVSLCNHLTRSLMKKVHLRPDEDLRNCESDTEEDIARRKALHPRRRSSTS

SMILES: CO[C@@H](C)c1c(Nc2ccc([C@H](N(C)C(=O)C3CCS(=O)(=O)CC3)C(F)(F)F)cc2)cnc2cc(Cl)nn12 [NVS-MALT1]
- residual activity [1]: 59%
- residual activity [2]: 100%
- residual activity [3]: 72%
- residual activity [4]: 100%
- residual activity [5]: 93%
- residual activity [6]: 84%
- residual activity [7]: 100%
- residual activity [8]: 100%
- residual activity [9]: 93%
- residual activity [10]: 100%
- residual activity [11]: 100%
- residual activity [12]: 100%
- residual activity [13]: 91%
- residual activity [14]: 96%
- residual activity [15]: 99%
- inhibition [16]: 11.6%
- residual activity [17]: 81%
- residual activity [18]: 100%
- inhibition [19]: -7.59%
- residual activity [20]: 66%
- residual activity [21]: 100%
- residual activity [22]: 93%
- residual activity [23]: 100%
- residual activity [24]: 100%
- residual activity [25]: 94%
- residual activity [26]: 90%
- residual activity [27]: 88%
- residual activity [28]: 83%
- residual activity [29]: 100%
- residual activity [30]: 93%
- residual activity [31]: 85%
- residual activity [32]: 92%
- residual activity [33]: 100%
- residual activity [34]: 100%
- residual activity [35]: 99%
- residual activity [36]: 86%
- residual activity [37]: 100%
- residual activity [38]: 88%
- residual activity [39]: 91%
- residual activity [40]: 90%
- residual activity [41]: 84%
- inhibition [42]: -2.45%
- residual activity [43]: 78%
- residual activity [44]: 100%
- residual activity [45]: 84%
- residual activity [46]: 90%

SMILES: CO[C@@H](C)c1c(Nc2ccc([C@@H](N(C)C(=O)C3CCS(=O)(=O)CC3)C(F)(F)F)cc2)cnc2cc(Cl)nn12 [NVS-MALT1-C]
- residual activity [1]: 42%
- residual activity [2]: 100%
- residual activity [3]: 100%
- residual activity [4]: 100%
- residual activity [5]: 100%
- residual activity [6]: 82%
- residual activity [7]: 92%
- residual activity [8]: 100%
- residual activity [9]: 96%
- residual activity [10]: 100%
- residual activity [11]: 100%
- residual activity [12]: 95%
- residual activity [13]: 84%
- residual activity [14]: 92%
- residual activity [15]: 92%
- inhibition [16]: 5.14%
- residual activity [17]: 89%
- residual activity [18]: 96%
- inhibition [19]: -3.44%
- residual activity [20]: 82%
- residual activity [21]: 100%
- residual activity [22]: 98%
- residual activity [23]: 100%
- residual activity [24]: 86%
- residual activity [25]: 85%
- residual activity [26]: 100%
- residual activity [27]: 100%
- residual activity [28]: 88%
- residual activity [29]: 100%
- residual activity [30]: 95%
- residual activity [31]: 90%
- residual activity [32]: 100%
- residual activity [33]: 89%
- residual activity [34]: 100%
- residual activity [35]: 83%
- residual activity [36]: 41%
- residual activity [37]: 100%
- residual activity [38]: 83%
- residual activity [39]: 87%
- residual activity [40]: 88%
- residual activity [41]: 87%
- inhibition [42]: -3.07%
- residual activity [43]: 100%
- residual activity [44]: 89%
- residual activity [45]: 77%
- residual activity [46]: 90%

Source: ChEMBL document CHEMBL4507320, “Data for DCP probe NVS-MALT1” (2021)
